Assay results taken from patent US12697330B2, “Therapeutic methods using vadadustat” (Akebia Therapeutics, Inc., priority 2021, dated 2026).

Assays:
erythropoietin (EPO) [1] = assay: Phase 1b study: pharmacodynamics, Baseline-unadjusted serum EPO concentration; type: in vivo, human
Protocol: PK and EPO Sample. For each vadadustat treatment group, blood samples for vadadustat PK (and its metabolites) and EPO were collected at the following time points: Day 1: predose, and at 1, 2, 3, 4, 5, 8, and 11 hours post dose; Day 2: 24 hours (−2 hours) post Day 1 dose; Day 6: blood sample for EPO analysis only was collected predose on Day 6; Day 8: predose, and at 1, 2, 3, 4, 5, 8, 11 hours post dose, Day 10 or EOT: predose. For the ESA treatment group, blood samples for analysis of EPO were collected at the following time points: Day 1: predose, and at 0.25, 1, 2, 3, 4, 5, 8, and 11 hours post dose; Day 2: 24 hours (−2 hours) post Day 1 dose.
PD Sampling. For all vadadustat and ESA treatment groups, in addition to EPO, blood samples for Hb, reticulocytes and iron indices for PD analyses were collected on Day 1, Day 6 and Day 10. Hepcidin were collected predose on Day 1, Day 6, and Day 10 for PD analysis.
Secondary Endpoints. For each treatment group, PD parameters included, but were not limited to, as deemed appropriate: hepcidin, erythropoietin (EPO), iron indices (iron, ferritin, total iron-binding capacity [TIBC], TSAT), Hb, and reticulocytes.
The summary of serum concentration of Baseline-unadjusted EPO by time for the vadadustat treatment groups in the PK population are presented in FIGS. 1a-11b and FIGS. 12a-12b. The summary of PD parameters for Baseline-unadjusted serum EPO concentration for vadadustat treatment groups by dosing days for the PK population are summarized in Table 2.

erythropoietin (EPO) [2] = assay: Phase 2 study, Main Study: pharmacodynamics, Baseline-Unadjusted serum EPO concentration; type: in vivo, human
Protocol: PK/PD Endpoints. An exposure-response analysis of vadadustat and PD measures were conducted as deemed appropriate. The PK parameters included (but were not limited to) the following: area under concentration-time curve from dosing to last measurable concentration (AUClast), area under concentration-time curve from dosing to infinity (AUCinf), Cmax, apparent total body clearance (CL/F), apparent volume of distribution (Vd/F), and terminal half-life (t1/2). The PD parameters included (but were not limited to) the following: EPO, reticulocytes, iron, ferritin, TIBC, and hepcidin.
PK population: included all randomized subjects who received study drug (vadadustat or epoetin alfa) and had enough drug concentrations to estimate AUC and Cmax. Analysis of this population was based on the dose amount taken at the date of PK sampling for the vadadustat group.
PD parameters for serum EPO concentration are presented by epoetin alfa stratification for vadadustat treatment groups in Table 7, Table 8a and Table 8b (baseline-unadjusted) and Table 9, Table 10a and Table 10b (baseline-adjusted).

[3] = low epoetin alfa stratum, Week 1 and Week 1+1 day

Structure (SMILES): O=C(O)CNC(=O)c1ncc(-c2cccc(Cl)c2)cc1O [vadadustat, {[5-(3-chlorophenyl)-3-hydroxypyridine-2-carbonyl]amino}acetic acid]
- EPO response (erythropoietin (EPO) [1]; 600, 750, 900 mg QD, Day 1 and Day 8): variable EPO response
- EPO after administration versus dose (erythropoietin (EPO) [1]; Day 8): dose-dependent increase of EPO
- EPO concentration versus dose (erythropoietin (EPO) [2]; high epoetin alfa stratum): No particular trend
- EPO Cmax versus dose (erythropoietin (EPO) [2]; high epoetin alfa stratum, Week 1): dose dependent
- EPO Cmax and AUC versus comparator (erythropoietin (EPO) [2]; [3]): lower compared to the epoetin alfa treatment group
- EPO Cmax and AUC versus dose (erythropoietin (EPO) [2]; [3]): dose proportional
- EPO concentration versus dose (erythropoietin (EPO) [2]; low epoetin alfa stratum, Week 1 and Week 1+1 day (300, 450 mg), Week 11 (150 to 600 mg)): Dose dependent increases in EPO concentrations
